Literature values as cited in patent US9949942B2, “Sustained release delivery of active agents to treat glaucoma and ocular hypertension” (Mati Therapeutics Inc., priority 0208, dated 2018).

What was measured:
[1] = not given; remark: listed apart in the source
[2] = man; after topical administration

## CC(C)OC(=O)CCC/C=C\C[C@@H]1[C@@H](CC[C@@H](O)CCc2ccccc2)[C@H](O)C[C@@H]1O [Latanoprost, isopropyl-(Z)-7[(1R,2R,3R,5S)3,5-dihydroxy-2-[(3R)-3-hydroxy-5-phenylpentyl]cyclopentyl]-5-heptenoate]
Clinical trials
  frequency of retinal artery embolus, retinal detachment, vitreous hemorrhage from diabetic retinopathy: rarely reported
  rate of upper respiratory tract infection/cold/flu (most common systemic adverse events): approximately 4%
  subjects requiring discontinuation of therapy because of intolerance to conjunctival hyperemia: Less than 1%
conjunctivitis, diplopia, discharge from the eye
  ocular adverse events: subjects affected: Less than 1%
[1]; acetone, ethanol, ethyl acetate, isopropanol, methanol, octanol
  solubility in acetone, ethanol, ethyl acetate, isopropanol, methanol and octanol: freely soluble
[1]; acetonitrile
  solubility in acetonitrile: very soluble
[1]; water
  solubility in water: practically insoluble
[2]
  time to peak concentration in the aqueous humor: about two
